The text below walks through data of patent US10669545B2, “Tumor cell malignant transformation suppressor and anti-tumor agent” (JAPAN SCIENCE AND TECHNOLOGY AGENCY, priority 2015, dated 2020).

Common to all, as to format: cell-based, human
The subject of data set [1] is A375 cells. The data set is described as follows: Cell morphology after siRNA transfection, A375 cells. The conditions noted are these: not shown.
In the next data set the test system is vemR-3 cells. The experiment in a line: Annexin V-positive cells, vemR-3 cells. The conditions noted are these: vs siNeg. On the procedure: The percentage of Annexin V-positive cells was measured as follows. First, FITC labeled Annexin V (manufactured by MBL, Nagoya, Japan) and Hoechst33342 were added to each cell and incubated for 40 minutes. Next, a stained state of the incubated cells was analyzed by using DAPI filter and FITC filter of an imaging cytometer, “In Cell Analyzer 2000” (manufactured by GE healthcare). Percentage (%) of […] was determined by In Cell Analyzer Workstation 3.7 (manufactured by GE healthcare). The statistical difference was determined by the Tukey's multiple comparisons of means test (**: P<0.01, *: P<0.05).
A percentage of apoptotic cells in the obtained cells was detected by using FITC labeled Annexin V (manufactured by MBL, Nagoya, Japan) in the same manner as Example 7.

In data set [2] the test system is phosphorylated ERK1/2 (Thr202/204) (pERK). The experiment in a line: Western blotting of phosphorylated ERK1/2. The conditions noted are these: vemR-3 cells; PLX4032 or DMSO treatment; siRNA vs siNeg. On the procedure:
Western blotting was performed in the same manner as above except that anti-pAKT antibody (manufactured by Cell Signaling), anti-AKT antibody (manufactured by Cell Signaling), anti-pERK antibody (manufactured by Cell Signaling), anti-ERK antibody (manufactured by Cell Signaling), and anti-β-actin antibody (manufactured by Sigma) were used.
vemR-1 to 3 cells and HT144 cells were treated with DMSO or PLX4032 solution (which was dissolved in DMSO to become 5 μM) for 48 hours, and the level of pAKT, AKT, pERK, ERK, and β-actin of these cells was assessed by western blotting in the same manner as Example 8.
A375 cells were treated in a medium in which a concentration of a FAK inhibitor I (manufactured by Calbiochem) was 0, 1, 2.5, or 5 μM for 24 hours, and the level of ZIC5, pro-PDGFD, pERK, and β-actin was measured by western blotting. Western blotting was performed in the same manner as above except that anti-ZIC5 antibody (manufactured by Aviva systems biology), anti-PDGFD antibody (manufactured by Santa Cruz), anti-pERK antibody (manufactured by Cell Signaling), and anti-β-actin antibody (manufactured by Sigma) were used.
A375 cells were treated in a medium in which a concentration of Interleukin-6 (IL-6) (manufactured by Novus Biologicals) was 0, 10, or 20 ng/mL for 24 hours, and then western blotting was performed to assess the level of ZIC5, pro-PDGFD, pSTAT3, STAT3, and GAPDH. […]
On the technique in general: Immunoblotting shows a protein as a band on a membrane.

The next data set concerns DU145 cells. The data set is described as follows: Cell number count, DU145 cells. The following applies: 0, 2, or 3 days after transfection. From the text: First, DU145 cells were transfected with siZIC5#1, siZIC5#2, siNeg#1, or siNeg#2 described in Table 2 in the same manner as Example 1, and the number of cells 0, 2, or 3 days after transfection was counted. The result of calculating a relative cell number of each cell (the number of cells on 0th day after transfection (before transfection) was set to 1) (n=3) is shown in FIG. 44.
The result of calculating a relative cell number of each cell (the number of cells on 0th day after transfection (before transfection) was set to 1) (n=3) is shown in FIG. 47.

For data set [3], the system named is A375 cells. The experiment in a line: Cell proliferation / cell number count, A375 cells. Here is the method: In cell proliferation assay, A375 cells and SK-MEL-28 cells transfected with siZIC5#1, siZIC5#2, siNeg#1, or siNeg#2 described in Table 2 in the same manner as Example 1 were plated at 1,000 to 2,000 cells/well in 96-well plates. The number of cells transfected with each siRNA was measured over time. Regarding counting the number of cells, cell nuclei were stained with Hoechst 33342 (manufactured by Dojindo, Kumamoto, Japan), and the total cell number in each well was counted by using an IN Cell Analyzer 2000 (manufactured by GE Healthcare, Piscataway, N.J.).
Furthermore, a cell cycle of each cell was examined with respect to A375 cells. An average value (SD) of percentages (%) of cells in G1 population, S population, and G2M population of each cell is shown in Table 9. […] As a result, percentages of cells in the S population and G2M population of A375 cells were reduced by PDGFD gene knockdown.
In addition, the number of cells of A375 cells transfected with siPDGFD#1, siPDGFD#2, or siNeg#1 was successively counted. The statistical difference was determined using the Dunnett's multiple comparisons of means test (**: P<0.01, *: P<0.05).
The result of a relative cell number (n=3) in which the number of cells of the cells treated with rat IgG was set to 1 is shown in FIG. 28. […]

With “siPDGFD#1: siRNA for PDGFD gene; targeting sequence CAGGAATTACTCGGTCAATAT (SEQ. NO. 28) (listed as DNA, chemistry not given here)”, the “morphological change of cells after siRNA transfection” value in the data set with A375 cells [1] is “morphological change occurred”. Moreover, the “percentage of Annexin V-positive cells” value with vemR-3 cells was “significantly increased”. The “pERK level (inactivation of ERK)” value in data set [2] was “the pERK level decreased”. Further, the “relative cell number (0th day set to 1), cell proliferation rate” value in the data set on DU145 cells is “decreased”. Also, the “relative cell number (siNeg#1 set to 1), cell proliferation rate” value in the data set on A375 cells [3] was “decrease in cell proliferation rate”.
